From ChEMBL document CHEMBL3046452, “Synthesis and pharmacological evaluation of some novel 2-pyrazolines bearing benzenesulfonamide as anti-inflammatory and blood glucose lowering agents” (Med Chem Res, 2013)

Columns and labels:
[1] = tested on: Rattus norvegicus; assay: Antidiabetic activity in fasted glucose fed hyperglycemic normal Rattus norvegicus Wistar albino (rat) assessed as blood glucose level at 0.05 mmol/kg administered 30 min prior to glucose-challenge measured after 60 min (reference value: 126.5 +/- 3.8 mg/dl); assay type: functional
[2] = tested on: Rattus norvegicus; assay: Ulcerogenic activity in fasted Rattus norvegicus Wistar albino (rat) at 0.15 mmol/kg , po measured after 6 hr; assay type: toxicity, organism-based; details: in vivo
[3] = tested on: Rattus norvegicus; assay: Anti-inflammatory activity in Rattus norvegicus Wistar albino (rat) assessed as inhibition of carrageenan-induced paw edema at 0.05 mmol/kg administered 30 min prior to carrageenan-challenge measured after 5 hr relative to control; assay type: functional
[4] = tested on: Rattus norvegicus; assay: Anti-inflammatory activity in Rattus norvegicus Wistar albino (rat) assessed as inhibition of carrageenan-induced paw edema at 0.05 mmol/kg administered 30 min prior to carrageenan-challenge measured after 3 hr relative to control; assay type: functional

Cc1ccc(S(=O)(=O)NC(=O)NN2CC3CCCC3C2)cc1 (configuration not stated) [GLICLAZIDE]
Activity [1]: 85.83 mg/dL

NS(=O)(=O)c1ccc(N2N=C(c3cccc(O)c3)C[C@H]2c2ccc(O)cc2)cc1
Activity [1]: 121 mg/dL | Activity [2]: Non-toxic | inhibition in vivo at 50 µmol/kg [3]: 77.7% | inhibition in vivo at 50 µmol/kg [4]: 64.7%

Cc1ccc([C@@H]2CC(c3cccc(O)c3)=NN2c2ccc(S(N)(=O)=O)cc2)cc1
Activity [1]: 138.6 mg/dL | inhibition in vivo at 50 µmol/kg [3]: 66% | inhibition in vivo at 50 µmol/kg [4]: 64.7%

COc1ccc([C@@H]2CC(c3cccc(O)c3)=NN2c2ccc(S(N)(=O)=O)cc2)cc1OC
Activity [1]: 111 mg/dL | inhibition in vivo at 50 µmol/kg [3]: 66.7% | inhibition in vivo at 50 µmol/kg [4]: 55.9%

NS(=O)(=O)c1ccc(N2N=C(c3cccc(O)c3)C[C@H]2c2ccccc2Cl)cc1
Activity [1]: 121 mg/dL | inhibition in vivo at 50 µmol/kg [3]: 70.3% | inhibition in vivo at 50 µmol/kg [4]: 32.6%

COc1ccc([C@@H]2CC(c3cccc(O)c3)=NN2c2ccc(S(N)(=O)=O)cc2)cc1
Activity [1]: 116.5 mg/dL | inhibition in vivo at 50 µmol/kg [3]: 62.9% | inhibition in vivo at 50 µmol/kg [4]: 64.7%

NS(=O)(=O)c1ccc(N2N=C(c3cccc(O)c3)C[C@H]2c2ccc(Cl)cc2)cc1
Activity [1]: 134 mg/dL | inhibition in vivo at 50 µmol/kg [3]: 51.8% | inhibition in vivo at 50 µmol/kg [4]: 19.2%

NS(=O)(=O)c1ccc(N2N=C(c3cccc(O)c3)C[C@H]2c2c3ccccc3cc3ccccc23)cc1
Activity [1]: 136.6 mg/dL | Activity [2]: Non-toxic | inhibition in vivo at 50 µmol/kg [3]: 77.7% | inhibition in vivo at 50 µmol/kg [4]: 59.8%

NS(=O)(=O)c1ccc(N2N=C(c3cccc(O)c3)C[C@H]2c2ccccc2)cc1
Activity [1]: 126.3 mg/dL | Activity [2]: Non-toxic | inhibition in vivo at 50 µmol/kg [3]: 77.7% | inhibition in vivo at 50 µmol/kg [4]: 35.8%

NS(=O)(=O)c1ccc(N2N=C(c3cccc(O)c3)C[C@H]2c2ccco2)cc1
Activity [1]: 133 mg/dL | inhibition in vivo at 50 µmol/kg [3]: 29.6% | inhibition in vivo at 50 µmol/kg [4]: 35.8%

NS(=O)(=O)c1ccc(N2N=C(c3cccc(O)c3)C[C@H]2c2ccccc2O)cc1
Activity [1]: 133 mg/dL | inhibition in vivo at 50 µmol/kg [3]: 55.5% | inhibition in vivo at 50 µmol/kg [4]: 35.4%

Cc1ccc(-c2cc(C(F)(F)F)nn2-c2ccc(S(N)(=O)=O)cc2)cc1 [CELECOXIB]
inhibition in vivo at 50 µmol/kg [3]: 82.2% | inhibition in vivo at 50 µmol/kg [4]: 75.9%

NS(=O)(=O)c1ccc(N2N=C(c3cccc(O)c3)C[C@H]2/C=C/c2ccccc2)cc1
Activity [1]: 131 mg/dL | inhibition in vivo at 50 µmol/kg [3]: 59.2% | inhibition in vivo at 50 µmol/kg [4]: 39.9%

COc1cc([C@@H]2CC(c3cccc(O)c3)=NN2c2ccc(S(N)(=O)=O)cc2)cc(OC)c1OC
Activity [1]: 94.6 mg/dL | inhibition in vivo at 50 µmol/kg [3]: 74.4% | inhibition in vivo at 50 µmol/kg [4]: 51.9%
